According to PMC6751662, “Pharmacological and functional similarities of the human neuropeptide Y system in C. elegans challenges phylogenetic views on the FLP/NPR system” (Cell Communication and Signaling : CCS, 2019):

Experiments:
Assay type in all cases: cell-based
Y2R = molecular target: T1, Y2R (Homo sapiens, UniProt P49146); assay: IP accumulation assay, chimeric GαΔ6qi4myr, Y2R; details: chimeric GαΔ6qi4myr co-transfected, transiently transfected HEK293 cells, mean of at least three independent experiments
T1 construct: expressed in transfected cells; host or cells: HEK293, transient
T1 sequence (P49146 1-381): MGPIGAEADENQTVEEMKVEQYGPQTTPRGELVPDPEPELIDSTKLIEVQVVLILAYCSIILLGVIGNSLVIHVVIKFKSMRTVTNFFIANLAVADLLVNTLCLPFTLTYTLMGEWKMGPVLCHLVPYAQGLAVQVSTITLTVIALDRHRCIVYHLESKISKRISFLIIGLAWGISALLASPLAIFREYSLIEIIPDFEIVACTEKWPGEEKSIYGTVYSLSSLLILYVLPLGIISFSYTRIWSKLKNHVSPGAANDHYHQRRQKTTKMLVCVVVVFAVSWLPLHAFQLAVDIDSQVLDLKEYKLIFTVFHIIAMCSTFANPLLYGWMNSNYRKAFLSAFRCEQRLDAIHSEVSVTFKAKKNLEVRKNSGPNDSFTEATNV
Procedure: (§1) For measuring IP accumulation, HEK293 cells grown to 70–80% confluency in 6-well plates were transiently co-transfected using Metafectene Pro (2.5 μl/μg DNA; Biontex) with plasmids containing receptor and/or mock (empty pcDNA3.1) (for endogenous Gq-coupling) using 4 μg total DNA in a ratio of 3:1 following the manufacturer’s instructions. For testing Gα16- and GαΔ6qi4myr-coupling, plasmids encoding the corresponding Gα protein were co-transfected instead of mock. Gα16 is naturally promiscuous and stimulates the phospholipase C (PLC) pathway leading to IP production, while the exchange of the C-terminal four amino acids of Gαq for the corresponding residues of Gαi1 in the chimeric GαΔ6qi4myr confers the ability to couple to Gi/o protein-preferring receptors but still stimulate PLC, thus specifically redirecting downstream cellular signaling. 16 h post transfection, the cells were seeded into white 384-well plates at a density of 20,000 cells/well. Media was removed 24 h later and the cells were incubated with the indicated concentration of peptides for 1 h in HBSS + 20 mM LiCl. IP accumulation was measured with the HTRF-based IP-One Gq kit (Cisbio) on a microplate reader (Tecan Spark).
(§2) For in vitro activation, data is presented as mean ± SEM of at least three independent experiments conducted in technical triplicate. […] For the C. elegans NPRs, we considered the strongest response elicited by any of the peptides downstream of a particular receptor as the receptor’s maximal signal. This may or may not be the biological maximum that can be reached by the ‘true’ endogenous agonist. For the human receptors, the response to the established endogenous agonist reflected the maximal signal.

NPFF1R = molecular target: T2, NPFF1R (Homo sapiens, UniProt Q9GZQ6); assay: IP accumulation assay, chimeric GαΔ6qi4myr, NPFF1R; details: chimeric GαΔ6qi4myr co-transfected, transiently transfected HEK293 cells, mean of at least three independent experiments
T2 construct: expressed in transfected cells; host or cells: HEK293, transient
T2 sequence (Q9GZQ6 whole entry): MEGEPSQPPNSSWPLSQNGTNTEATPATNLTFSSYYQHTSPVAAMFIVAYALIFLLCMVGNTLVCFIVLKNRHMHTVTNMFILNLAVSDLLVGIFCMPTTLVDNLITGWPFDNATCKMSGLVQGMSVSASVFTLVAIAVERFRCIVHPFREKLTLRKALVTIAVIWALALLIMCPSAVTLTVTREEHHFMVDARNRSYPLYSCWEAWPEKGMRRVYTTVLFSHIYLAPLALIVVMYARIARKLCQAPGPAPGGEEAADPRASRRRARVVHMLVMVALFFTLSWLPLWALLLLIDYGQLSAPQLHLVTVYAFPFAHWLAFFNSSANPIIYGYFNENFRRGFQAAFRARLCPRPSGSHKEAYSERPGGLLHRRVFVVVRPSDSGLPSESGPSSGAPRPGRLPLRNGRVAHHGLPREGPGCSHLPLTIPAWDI
Procedure: as §1, §2

Y1R = molecular target: T3, Y1R (Homo sapiens, UniProt P25929); assay: IP accumulation assay, chimeric GαΔ6qi4myr, Y1R; details: chimeric GαΔ6qi4myr co-transfected, transiently transfected HEK293 cells, mean of at least three independent experiments
T3 construct: expressed in transfected cells; host or cells: HEK293, transient
T3 sequence (P25929 1-384): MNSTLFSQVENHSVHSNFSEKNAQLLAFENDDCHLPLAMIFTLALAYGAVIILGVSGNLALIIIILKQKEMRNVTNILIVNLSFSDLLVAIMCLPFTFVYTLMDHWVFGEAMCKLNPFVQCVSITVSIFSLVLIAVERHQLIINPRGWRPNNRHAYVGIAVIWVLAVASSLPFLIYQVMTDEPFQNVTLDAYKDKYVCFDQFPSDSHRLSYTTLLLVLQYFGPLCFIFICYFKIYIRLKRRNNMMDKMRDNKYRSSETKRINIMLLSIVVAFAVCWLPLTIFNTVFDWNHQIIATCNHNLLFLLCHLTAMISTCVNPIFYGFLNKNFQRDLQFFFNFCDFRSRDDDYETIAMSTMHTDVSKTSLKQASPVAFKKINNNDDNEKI
Procedure: as §1, §2

Y5R = molecular target: T4, Y5R (Homo sapiens, UniProt Q15761); assay: IP accumulation assay, chimeric GαΔ6qi4myr, Y5R; details: chimeric GαΔ6qi4myr co-transfected, transiently transfected HEK293 cells, mean of at least three independent experiments
T4 construct: expressed in transfected cells; host or cells: HEK293, transient
T4 sequence (Q15761 1-445): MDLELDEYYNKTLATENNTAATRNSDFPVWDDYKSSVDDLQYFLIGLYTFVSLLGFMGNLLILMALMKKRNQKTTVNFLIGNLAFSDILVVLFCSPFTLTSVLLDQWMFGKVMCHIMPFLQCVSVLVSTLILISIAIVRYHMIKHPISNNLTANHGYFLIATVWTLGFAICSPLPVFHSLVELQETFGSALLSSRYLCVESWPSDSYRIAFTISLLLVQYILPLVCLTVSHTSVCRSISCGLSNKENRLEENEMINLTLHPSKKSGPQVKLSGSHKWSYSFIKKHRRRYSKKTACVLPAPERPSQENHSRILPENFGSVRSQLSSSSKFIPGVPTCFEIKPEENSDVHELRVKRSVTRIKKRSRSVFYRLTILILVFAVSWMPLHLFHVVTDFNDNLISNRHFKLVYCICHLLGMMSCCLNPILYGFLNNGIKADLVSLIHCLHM
Procedure: as §1, §2

PrRPR = molecular target: T5, PrRPR (Homo sapiens, UniProt P49683); assay: IP accumulation assay, endogenous Gαq coupling, PrRPR; details: transiently transfected HEK293 cells, mean of at least three independent experiments
T5 construct: expressed in transfected cells; host or cells: HEK293, transient
T5 sequence (P49683 1-370): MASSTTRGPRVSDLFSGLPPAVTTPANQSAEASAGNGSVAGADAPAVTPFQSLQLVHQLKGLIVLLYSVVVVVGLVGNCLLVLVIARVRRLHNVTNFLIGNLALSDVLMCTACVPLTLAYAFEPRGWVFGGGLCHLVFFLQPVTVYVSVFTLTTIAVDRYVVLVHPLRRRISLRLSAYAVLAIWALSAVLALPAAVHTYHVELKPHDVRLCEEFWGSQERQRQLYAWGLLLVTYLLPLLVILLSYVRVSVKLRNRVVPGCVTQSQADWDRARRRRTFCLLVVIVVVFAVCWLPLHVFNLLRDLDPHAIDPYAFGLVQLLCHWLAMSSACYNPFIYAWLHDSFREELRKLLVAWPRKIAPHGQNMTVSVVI
Procedure: as §1, §2

NPFF2R = molecular target: T6, NPFF2R (Homo sapiens, UniProt Q9Y5X5); assay: IP accumulation assay, chimeric GαΔ6qi4myr, NPFF2R; details: chimeric GαΔ6qi4myr co-transfected, transiently transfected HEK293 cells, mean of at least three independent experiments
T6 construct: expressed in transfected cells; host or cells: HEK293, transient
T6 sequence (Q9Y5X5 103-522): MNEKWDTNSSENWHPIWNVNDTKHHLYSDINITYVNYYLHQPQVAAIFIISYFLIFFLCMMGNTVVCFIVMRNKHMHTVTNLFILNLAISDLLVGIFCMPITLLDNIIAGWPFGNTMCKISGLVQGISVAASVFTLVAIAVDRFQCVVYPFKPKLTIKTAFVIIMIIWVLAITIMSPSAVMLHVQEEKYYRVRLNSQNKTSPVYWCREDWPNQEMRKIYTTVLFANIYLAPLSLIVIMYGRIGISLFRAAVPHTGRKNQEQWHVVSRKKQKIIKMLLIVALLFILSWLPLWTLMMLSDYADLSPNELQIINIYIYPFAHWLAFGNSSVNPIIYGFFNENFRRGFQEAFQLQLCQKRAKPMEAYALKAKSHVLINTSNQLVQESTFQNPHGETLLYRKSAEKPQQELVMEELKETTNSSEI
Procedure: as §1, §2

Row | Substance | IP accumulation, x-fold of basal (mean), Y2R (Y2R; 0.1 µM peptide) | IP accumulation, x-fold of basal (mean), Y2R (Y2R; 10 µM peptide) | IP accumulation, x-fold of basal (mean), NPFF1R (NPFF1R; 0.1 µM peptide) | IP accumulation, x-fold of basal (mean), NPFF1R (NPFF1R; 10 µM peptide) | IP accumulation, x-fold of basal (mean), Y1R (Y1R; 0.1 µM peptide) | IP accumulation, x-fold of basal (mean), Y1R (Y1R; 10 µM peptide) | IP accumulation, x-fold of basal (mean), Y5R (Y5R; 0.1 µM peptide) | IP accumulation, x-fold of basal (mean), Y5R (Y5R; 10 µM peptide) | IP accumulation, x-fold of basal (mean), PrRPR# (PrRPR; 0.1 µM peptide) | IP accumulation, x-fold of basal (mean), PrRPR# (PrRPR; 10 µM peptide) | IP accumulation, x-fold of basal (mean), NPFF2R (NPFF2R; 0.1 µM peptide) | IP accumulation, x-fold of basal (mean), NPFF2R (NPFF2R; 10 µM peptide)
1 | PrRP31 [reference compound] | 0.76 x-fold of basal | 5.57 x-fold of basal | 0.87 x-fold of basal | 2.26 x-fold of basal | 0.87 x-fold of basal | 1.86 x-fold of basal | 0.70 x-fold of basal | 9.64 x-fold of basal | 25.49 x-fold of basal | 25.47 x-fold of basal | 1.83 x-fold of basal | 2.28 x-fold of basal
2 | TPDINPAWYASRGIRPVGRF-NH2 [PrRP20, human prolactin-releasing peptide, 20 residues, reference compound] | 0.81 x-fold of basal | 5.05 x-fold of basal | 0.94 x-fold of basal | 2.37 x-fold of basal | 0.82 x-fold of basal | 2.68 x-fold of basal | 1.01 x-fold of basal | 5.90 x-fold of basal | 26.01 x-fold of basal | 27.38 x-fold of basal | 1.75 x-fold of basal | 2.32 x-fold of basal
3 | ASPSFIRF-NH2 [FLP-4-2, C. elegans FMRFamide-like peptide, C-terminally amidated, synthesized by SPPS] | 0.76 x-fold of basal | 2.05 x-fold of basal | 1.86 x-fold of basal | 3.68 x-fold of basal | 2.37 x-fold of basal | 1.93 x-fold of basal | 1.14 x-fold of basal | 1.29 x-fold of basal | 0.85 x-fold of basal | 0.86 x-fold of basal | 1.07 x-fold of basal | 2.36 x-fold of basal

Results, then the substance that gave them:

Row | IP accumulation, x-fold of basal (mean), Y2R (Y2R; 0.1 µM peptide) | IP accumulation, x-fold of basal (mean), Y2R (Y2R; 10 µM peptide) | IP accumulation, x-fold of basal (mean), NPFF1R (NPFF1R; 0.1 µM peptide) | IP accumulation, x-fold of basal (mean), NPFF1R (NPFF1R; 10 µM peptide) | IP accumulation, x-fold of basal (mean), Y1R (Y1R; 0.1 µM peptide) | IP accumulation, x-fold of basal (mean), Y1R (Y1R; 10 µM peptide) | IP accumulation, x-fold of basal (mean), Y5R (Y5R; 0.1 µM peptide) | IP accumulation, x-fold of basal (mean), Y5R (Y5R; 10 µM peptide) | IP accumulation, x-fold of basal (mean), PrRPR# (PrRPR; 0.1 µM peptide) | IP accumulation, x-fold of basal (mean), PrRPR# (PrRPR; 10 µM peptide) | IP accumulation, x-fold of basal (mean), NPFF2R (NPFF2R; 0.1 µM peptide) | IP accumulation, x-fold of basal (mean), NPFF2R (NPFF2R; 10 µM peptide) | Substance
4 | 1.30 x-fold of basal | 10.62 x-fold of basal | 1.04 x-fold of basal | 2.56 x-fold of basal | 1.32 x-fold of basal | 2.75 x-fold of basal | 0.87 x-fold of basal | 3.57 x-fold of basal | 1.06 x-fold of basal | 1.91 x-fold of basal | 1.85 x-fold of basal | 2.58 x-fold of basal | TSGPLGNLAEELNGYSRKKGGFSFRF-NH2 [QRFP26, human pyroglutamylated RFamide peptide, 26 residues, reference compound]
5 |  |  |  |  |  |  |  |  | 0.93 x-fold of basal | 0.91 x-fold of basal |  |  | EASAFGDIIGELKGKGLGGRMRF-NH2 [FLP-27, NPY-like C. elegans FLP with C-terminal RxRF/Ya signature]
6 |  |  |  |  |  |  |  |  | 0.91 x-fold of basal | 0.88 x-fold of basal |  |  | APLEGFEDMSGFLRTIDGIQKPRF-NH2 [FLP-33, NPY-like C. elegans FLP with C-terminal RxRF/Ya signature]
7 | 3.40 x-fold of basal | 12.24 x-fold of basal | 0.75 x-fold of basal | 0.75 x-fold of basal | 17.01 x-fold of basal | 25.89 x-fold of basal | 16.39 x-fold of basal | 17.90 x-fold of basal | 0.99 x-fold of basal | 1.01 x-fold of basal | 0.95 x-fold of basal | 1.44 x-fold of basal | APLEPVYPGDNATPEQMAQYAADLRRYINMLTRPRY-NH2 [PP, human pancreatic polypeptide, reference compound]
8 | 0.88 x-fold of basal | 4.08 x-fold of basal | 1.48 x-fold of basal | 4.07 x-fold of basal | 1.02 x-fold of basal | 1.69 x-fold of basal | 0.80 x-fold of basal | 5.88 x-fold of basal | 1.20 x-fold of basal | 1.41 x-fold of basal | 0.88 x-fold of basal | 2.44 x-fold of basal | APKPKFIRF-NH2 [FLP-5-1, C. elegans FMRFamide-like peptide, C-terminally amidated, synthesized by SPPS]
